Laboratory results as given in patent publication EP2550964A1, “Temsirolimus for use in the prevention and/or treatment of a delta 9-tetrahydrocannabinol-induced anxiety disorder” (Universitat Pompeu-Fabra, priority 2011, dated 2013).

Assays:
Format in all cases: in vivo
mice [1] = experiment: Object-recognition task (V-maze, discrimination index)
Experimental: Object-recognition memory was assayed in the V-maze, a black Plexiglas maze with two corridors (30 cm long x 4.5 cm wide) set in V with a 90 degrees angle, and 15 cm high walls. The test was performed as previously described (Puighermanal, E. et al., 2009. Nature Neuroscience, 12:1152-1158). Briefly, a discrimination index was calculated in the test session. All the drugs (temsirolimus or THC and their vehicles) were injected intraperitoneally after the training session. Objects to be explored in the test were made out of different materials (marble, wood or plastic) and shapes, and had been tested in previous experiments to show no preference or dislike for control mice. On the first day, mice were placed for 9 min in the V-maze for habituation. On the second day, mice were placed back in the V-maze where two objects were positioned at the end of the corridors. On the next day (test day), mice were placed in the V-maze where one of the objects was replaced by a new object. The time spent exploring the familiar object (Tf) and the novel object (Tn) were counted and the discrimination index (D.I.) was calculated as follows: D.I.= [Tn-Tf]/[Tn+Tf]. D.I. close to zero means a cognitive deficit, while D.I. close to 0.5 means a good cognitive function in this memory test.

mice [2] = tested on: mice
Experimental: Elevated plus maze test. The elevated plus maze test was performed in a black Plexiglas apparatus with four arms (29 cm long x 5 cm wide) set in cross from a neutral central square (5 cm x 5 cm) elevated 40 cm above the floor. Five-min test sessions were performed 120 min after drug administration through intraperitoneal injection (temsirolimus and/or THC, and their vehicles). The percentage of time spent in the open arms was determined as a measure of anxiety-like processes. The model is based on rodents' aversion of open spaces. Anxiety reduction in the elevated plus maze test is indicated by an increase in the proportion of time spent in the open arms

mice [3] = experiment: Antinociception, acetic acid visceral pain test (number of writhes)
Experimental: This visceral pain test was performed 120 min after THC administration. Mice received an i.p. administration of acetic acid (0.8 % solution) injected in a volume of […] of body weight. Immediately after, mice were placed in individual transparent cylinders (16 cm high, 16 cm diameter) for 20 min. The number of writhes was counted during 15 min, starting 5 min after acetic acid administration.

Structure (SMILES) | cognitive deficit on chronic administration (object-recognition test) (mice [1]; mouse, in vivo) | persistence of cognitive deficit after finishing the exposition to THC (mice [1]; mouse, in vivo) | amnesic effect in the object-recognition test (mice [1]; mouse, in vivo, ip) | anxiety-like effect of THC at low dose (mice [2]; mouse, in vivo) | anxiety-like effect of THC at high doses (mice [2]; mouse, in vivo, 10 mg/kg/day) | analgesic effects (abdominal writhes) (mice [3]; mouse, in vivo) | blockade of the amnesic effect of THC (mice [1]; pre-treatment with temsirolimus 1 mg/kg/day (3 mg/m^2/day), THC 10 mg/kg/day (30 mg/m^2/day), Figure 2) | prevention of the THC cognitive deficit on chronic co-administration (mice [1]; temsirolimus 1 mg/kg/day (3 mg/m^2/day) together with THC 10 mg/kg/day (30 mg/m^2/day), chronic, Figure 3B) | effects on the recognition memory (mice [1]; temsirolimus alone, 1 mg/kg/day (3 mg/m^2/day), i.p., Figure 1) | amnesic effects (object-recognition test) (mice [1]; temsirolimus alone, high doses 10, 30 and 100 mg/kg/day (30, 90 and 300 mg/m^2/day), i.p., Figure 1) | influence on the anxiolytic effect of THC (mice [2]; temsirolimus 1 mg/kg/day (3 mg/m^2/day), THC 0.3 mg/kg/day (0.9 mg/m^2/day), Figure 5) | blockade of the anxiogenic effects of THC (mice [2]; temsirolimus 1 mg/kg/day (3 mg/m^2/day), THC 10 mg/kg/day (30 mg/m^2/day), i.p., test 120 min after administration, Figure 4) | influence on the analgesic capacity of THC (mice [3]; pre-treatment with temsirolimus 1 mg/kg/day (3 mg/m^2/day) and THC 10 mg/kg/day (30 mg/m^2/day), Figure 6)
CCCCCc1cc(O)c2c(c1)OC(C)(C)[C@@H]1CCC(C)=C[C@@H]21 [THC, (-)-(6aR,10aR)-6,6,9-trimethyl-3-pentyl-6a,7,8,10a-tetrahydro-6H-benzo[c]chromen-1-ol] | produces a cognitive deficit | continues showing a cognitive deficit during the following four days | always presents an amnesic effect | causes anxiolytic effects | cause anxiogenic effects | has analgesic effects |  |  |  |  |  |  | 
CO[C@H]1C[C@@H]2CC[C@@H](C)[C@@](O)(O2)C(=O)C(=O)N2CCCC[C@H]2C(=O)O[C@H]([C@H](C)C[C@@H]2CC[C@@H](OC(=O)C(C)(CO)CO)[C@H](OC)C2)CC(=O)[C@H](C)/C=C(\C)[C@@H](O)[C@@H](OC)C(=O)[C@H](C)C[C@H](C)/C=C/C=C/C=C/1C [temsirolimus, (1R,2R,4S)-4-{(2R)-2-[(3S,6R,7E,9R,10R,12R,145,15E,17E,19E,215,23S,26R,27R,34aS)-9,27-dihydroxy-10,21-dimethoxy-6,8,12,14,20,26-hexamethyl-1,5,11,28,29-pentaoxo-1,4,5,6,9,10,11,12,13,14,21,22,23,24,25,26,27,28,29,31,32,33,34,34a-tetracosahydro-3H-23,27-epoxypyrido[2,1-c][1,4]oxazacyclohentriacontin-3-yl]propyl}-2-methoxycyclohexyl 3-hydroxy-2-(hydroxymethyl)-2-methylpropanoate] |  |  |  |  |  |  | blocks the amnesic effect | prevented the appearance of the THC cognitive deficit | does not have effects on the recognition memory | shows amnesic effects | does not avoid the anxiolytic effect | blocks the anxiogenic effects | does not affect the analgesic capacity of THC
